Measurements from patent US20030004172A1, “Fused pyrimidinone matrix metalloproteinase inhibitors” (priority 2001, published 2003).
Where two headings read alike, the source gives them in different places.

Tests used:
[1] = target: MMP-13CD (catalytic domain of collagenase-3) (Homo sapiens, UniProt P45452); assay: Thiopeptolide substrate hydrolysis inhibition assay, MMP-13CD; format: biochemical
From the text: (§1) Thiopeptolide substrates show virtually no decomposition or hydrolysis at or below neutral pH in the absence of a matrix metalloproteinase enzyme.

[2] = target: MMP-3CD (catalytic domain of stromelysin-1) (Homo sapiens, UniProt P08254); assay: Thiopeptolide substrate hydrolysis inhibition assay, MMP-3CD; format: biochemical; conditions: Table II; micromolar concentration; MES buffer pH 6.0
Experimental: as §1
It should be appreciated that the assay buffer used with MMP-3CD is 50 mM N-morpholinoethanesulfonate (“MES”) at pH 6.0 rather than the HEPES buffer at pH 7.0 described above.

MMP-12CD = target: T1, MMP-12CD (Homo sapiens, UniProt P39900); assay: Thiopeptolide substrate hydrolysis inhibition assay, MMP-12CD; format: biochemical; conditions: Table II; micromolar concentration; HEPES pH 7.0
T1 construct: 12CD
From the text: as §1

[3] = target: MMP-9FL (full-length Gelatinase B) (Homo sapiens, UniProt P14780); assay: Thiopeptolide substrate hydrolysis inhibition assay, MMP-9FL; format: biochemical; conditions: Table II; micromolar concentration; HEPES pH 7.0
From the text: as §1

[4] = target: T2, MMP-2FL (full length Gelatinase A) (Homo sapiens, UniProt P08253); assay: Thiopeptolide substrate hydrolysis inhibition assay, MMP-2FL; format: biochemical; conditions: Table II; micromolar concentration; HEPES pH 7.0
T2 sequence (P08253 110-660): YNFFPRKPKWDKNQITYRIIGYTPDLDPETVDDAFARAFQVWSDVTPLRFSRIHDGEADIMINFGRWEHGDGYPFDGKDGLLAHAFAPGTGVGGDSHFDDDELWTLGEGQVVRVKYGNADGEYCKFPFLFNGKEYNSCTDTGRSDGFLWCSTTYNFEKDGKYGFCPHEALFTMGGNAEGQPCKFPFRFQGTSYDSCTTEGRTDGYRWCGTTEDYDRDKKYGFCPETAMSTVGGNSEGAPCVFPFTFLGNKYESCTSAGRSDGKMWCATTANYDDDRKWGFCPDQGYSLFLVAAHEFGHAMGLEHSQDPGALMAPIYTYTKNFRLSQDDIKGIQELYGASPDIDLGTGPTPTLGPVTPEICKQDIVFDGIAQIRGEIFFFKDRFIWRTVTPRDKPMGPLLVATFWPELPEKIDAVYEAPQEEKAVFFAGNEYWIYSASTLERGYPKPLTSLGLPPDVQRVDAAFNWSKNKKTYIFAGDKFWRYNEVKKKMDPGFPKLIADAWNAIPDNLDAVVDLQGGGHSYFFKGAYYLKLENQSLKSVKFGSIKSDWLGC
From the text: as §1

[5] = target: T3, MMP-7FL (full-length matrilysin) (Homo sapiens, UniProt P09237); assay: Thiopeptolide substrate hydrolysis inhibition assay, MMP-7FL; format: biochemical; conditions: Table II; micromolar concentration; HEPES pH 7.0
T3 sequence (P09237 95-267): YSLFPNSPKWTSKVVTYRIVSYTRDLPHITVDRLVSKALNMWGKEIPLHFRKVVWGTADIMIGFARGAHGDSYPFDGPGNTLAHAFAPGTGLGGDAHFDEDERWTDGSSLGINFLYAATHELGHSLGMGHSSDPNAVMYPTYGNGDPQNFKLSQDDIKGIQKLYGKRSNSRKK
From the text: as §1

[6] = target: MMP-14CD (catalytic domain of MMP-14) (Homo sapiens, UniProt P50281); assay: Thiopeptolide substrate hydrolysis inhibition assay, MMP-14CD; format: biochemical; conditions: Table II; micromolar concentration; HEPES pH 7.0
From the text: as §1

[7] = Table I, thiopeptolide substrate, HEPES pH 7.0, 22° C., read-out: MMP-13CD IC50
[8] = Table II, micromolar concentration, HEPES pH 7.0, read-out: IC50 MMP-13CD

MMP-3CD (catalytic domain of stromelysin-1), sequence (P08254 100-272 limits assumed): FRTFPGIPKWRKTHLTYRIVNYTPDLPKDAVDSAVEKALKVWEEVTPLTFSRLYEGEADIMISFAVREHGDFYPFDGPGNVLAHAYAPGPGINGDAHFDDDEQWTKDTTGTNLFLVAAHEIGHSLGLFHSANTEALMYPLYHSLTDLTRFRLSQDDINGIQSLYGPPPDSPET
MMP-9FL (full-length Gelatinase B), sequence (P14780 94-707, species assumed): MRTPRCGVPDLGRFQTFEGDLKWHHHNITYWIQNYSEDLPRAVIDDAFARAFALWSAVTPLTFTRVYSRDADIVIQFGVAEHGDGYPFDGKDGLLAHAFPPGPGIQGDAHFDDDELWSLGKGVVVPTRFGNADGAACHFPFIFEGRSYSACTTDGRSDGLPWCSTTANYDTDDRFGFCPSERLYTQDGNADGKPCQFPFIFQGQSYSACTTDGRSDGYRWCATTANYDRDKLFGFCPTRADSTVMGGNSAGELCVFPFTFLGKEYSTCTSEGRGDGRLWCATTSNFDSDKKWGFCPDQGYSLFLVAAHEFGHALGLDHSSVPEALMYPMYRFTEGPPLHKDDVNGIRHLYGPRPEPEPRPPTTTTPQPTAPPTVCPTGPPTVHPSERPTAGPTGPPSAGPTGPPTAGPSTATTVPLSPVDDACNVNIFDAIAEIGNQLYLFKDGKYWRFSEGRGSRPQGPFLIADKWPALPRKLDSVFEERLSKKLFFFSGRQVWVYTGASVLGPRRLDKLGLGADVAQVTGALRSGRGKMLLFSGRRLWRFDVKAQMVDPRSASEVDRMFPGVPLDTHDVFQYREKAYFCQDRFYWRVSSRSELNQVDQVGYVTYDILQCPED
T1 sequence (P39900 106-263 limits assumed): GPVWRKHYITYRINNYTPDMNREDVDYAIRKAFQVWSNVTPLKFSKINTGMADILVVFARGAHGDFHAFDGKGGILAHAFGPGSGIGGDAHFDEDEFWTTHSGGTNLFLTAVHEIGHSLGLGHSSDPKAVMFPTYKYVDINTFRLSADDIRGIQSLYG

Compound | IC50 [1, 7] [nM] | melting point | also measured
O=C(OCc1ccccc1)c1cc2c(=O)n(Cc3ccccc3)c(=O)[nH]c2s1 [Example 1, 3-Benzyl-2,4-dioxo-1,2,3,4-tetrahydro-thieno[2,3-d]pyrimidine-6-carboxylic acid benzyl ester] | 740 | 195 to 197 °C | IC50 [1, 8]: 610 nM; IC50 [2]: 18000 nM
O=C(NCc1ccccc1)c1cc2c(=O)n(Cc3ccccc3)c(=O)[nH]c2s1 [Example 3, 3-Benzyl-2,4-dioxo-1,2,3,4-tetrahydro-thieno[2,3-d]pyrimidine-6-carboxylic acid benzyl amide] | 30000 | > 255 °C | 
O=C(OCc1ccc(/C=C/c2ccccc2)cc1)c1cc2c(=O)n(Cc3ccccc3)c(=O)[nH]c2s1 [Example 4] | 16000 | 247 to 249 °C | 
Cc1c(C(=O)OCc2ccccc2)sc2[nH]c(=O)n(CCc3ccccc3)c(=O)c12 [Example 5, 5-Methyl-2,4-dioxo-3-phenylethyl-1,2,3,4-tetrahydro-thieno[2,3-d]pyrimidine-6-carboxylic acid benzyl ester] | 51000 | 207 to 209 °C | 
Cc1ccc(-n2c(=O)[nH]c3sc(C(=O)OCc4ccccc4)c(C)c3c2=O)cc1 [Example 7, 5-Methyl-2,4-dioxo-3-p-tolyl-1,2,3,4-tetrahydro-thieno[2,3-d]-6-carboxylic acid benzyl ester] | 10000 | 267 to 269 °C | 
Cn1c(=O)n(Cc2ccccc2)c(=O)c2cc(C(=O)OCc3ccccc3)sc21 [Example 9, 3-Benzyl-1-methyl-2,4-dioxo-1,2,3,4-tetrahydro-thieno[2,3-d]pyrimidine-6-carboxylic acid benzyl ester] |  | 143 to 145 °C | 
COc1cccc(CNC(=O)c2cc3c(=O)n(Cc4ccc(CC(=O)O)cc4)c(=O)n(C)c3s2)c1 [Example 39, {4-[6-(3-Methoxy-benzylcarbamoyl)-1-methyl-2,4-dioxo-1,4-dihydro-2H-thieno[2,3-d]pyrimidin-3-ylmethyl]-phenyl}-acetic acid] |  |  | IC50 [1, 8]: 3.8 nM; IC50 [2]: 16000 nM; IC50 (MMP-12CD): 10000 nM
CCn1c(=O)n(Cc2ccccc2)c(=O)c2cc(C(=O)OCc3ccccc3)sc21 [Example 73, 3-Benzyl-1-ethyl-2,4-dioxo-1,2,3,4-tetrahydro-thieno[2,3-d]pyrimidine-6-carboxylic acid benzyl ester] | > 100000 | 147 to 148 °C | 
COc1ccc(CNC(=O)c2cc3c(=O)n(CC#N)c(=O)n(C)c3s2)cc1 [Example 223, 3-Cyanomethyl-1-methyl-2,4-dioxo-1,2,3,4-tetrahydro-thieno[2,3-d]pyrimidine-6-carboxylic acid 4-methoxy-benzylamide] |  | 180 to 183 °C | 
COc1cccc(CNC(=O)c2cc3c(=O)n(CC#N)c(=O)n(C)c3s2)c1 [Example 224, 3-Cyanomethyl-1-methyl-2,4-dioxo-1,2,3,4-tetrahydro-thieno[2,3-d]pyrimidine-6-carboxylic acid 3-methoxy-benzylamide] | 783 | 159 to 163 °C | 
COc1ccc(CNC(=O)c2cc3c(=O)n(CC#N)c(=O)n(C)c3s2)cc1 [Example 365, 3-Cyanomethyl-1-methyl-2,4-dioxo-1,2,3,4-tetrahydro-thieno[2,3-d]pyrimidine-6-carboxylic acid 4-methoxy-benzylamide] | 1550 |  | 
COc1cc(CNC(=O)c2cc3c(=O)n(Cc4ccc([N+](=O)[O-])nc4)c(=O)n(C)c3s2)ccn1 [Example 370, 1-Methyl-3-(6-nitro-pyridin-3-ylmethyl)-2,4-dioxo-1,2,3,4-tetrahydro-thieno[2,3-d]pyrimidine-6-carboxylic acid (2-methoxy-pyridin-4-ylmethyl)-amide] | 1170 |  | 

The next lines start with results.

IC50 [1, 7] [nM] | melting point | Compound | also measured
310 | 248 to 250 °C | O=C(OCc1ccncc1)c1cc2c(=O)n(Cc3ccccc3)c(=O)[nH]c2s1 [Example 2, 3-Benzyl-2,4-dioxo-1,2,3,4-tetrahydro-thieno[2,3-d]pyrimidine-6-carboxylic acid pyridin-4-ylmethyl ester] | 
260 |  | O=C(OCc1ccncc1)c1cc2c(=O)n(Cc3ccc(Br)cc3)c(=O)[nH]c2s1 [Example 49, 3-(4-Bromo-benzyl)-2,4-dioxo-1,2,3,4-tetrahydro-thieno[2,3-d]pyrimidine-6-carboxylic acid pyridin-4-ylmethyl ester] | IC50 [1, 8]: 260 nM; IC50 [2]: 23000 nM
78.5 |  | COc1ccc(CNC(=O)c2cc3c(=O)n(Cc4ccc(S(N)(=O)=O)cc4)c(=O)n(C)c3s2)cc1 [Example 217, 1-Methyl-2,4-dioxo-3-(4-sulfamoyl-benzyl)-1,2,3,4-tetrahydro-thieno[2,3-d]pyrimidine-6-carboxylic acid 4-methoxy-benzylamide] | IC50 [1, 8]: 78.5 nM; IC50 [2]: 27000 nM; IC50 [3]: 30000 nM; IC50 (MMP-12CD): 30000 nM
61 | 226 to 228 °C (dec.) | COc1ccc(CNC(=O)c2cc3c(=O)n(Cc4ccc(/C(N)=N/O)cc4)c(=O)n(C)c3s2)cc1 [Example 220, 3-[4-(N-Hydroxycarbamimidoyl)-benzyl]-1-methyl-2,4-dioxo-1,2,3,4-tetrahydro-thieno[2,3-d]pyrimidine-6-carboxylic acid 4-methoxy-benzylamide] | 
225 | 169 to 171 °C | COC(=O)/C=C/Cn1c(=O)c2cc(C(=O)NCc3ccc(OC)cc3)sc2n(C)c1=O [Example 225, (E)-4-[6-(4-Methoxy-benzylcarbamoyl)-1-methyl-2,4-dioxo-1,4-dihydro-2H-thieno[2,3-d]pyrimidin-3-yl]-but-2-enoic acid methyl ester] | 
640 |  | COC(=O)c1ccc(Cn2c(=O)c3cc(C(N)=O)sc3n(C)c2=O)cc1C [Example 249a] | IC50 [1, 8]: 640 nM; IC50 [4]: 30000 nM; IC50 [5]: 30000 nM; IC50 [3]: 30000 nM; IC50 [6]: 30000 nM
3.6 |  | Cn1c(=O)n(Cc2ccccc2)c(=O)c2cc(C(=O)OCc3ccncc3)sc21 [Example 303, 3-Benzyl-1-methyl-2,4-dioxo-1,2,3,4-tetrahydro-thieno[2,3-d]pyrimidine-6-carboxylic acid pyridin-4-ylmethyl ester] | IC50 [1, 8]: 3.6 nM; IC50 [2]: 6000 nM; IC50 [5]: 32000 nM; IC50 [3]: 30000 nM
8.25 |  | COc1cccc(CNC(=O)c2cc3c(=O)n(Cc4ccc(S(=O)(=O)NC5CC5)cc4)c(=O)n(C)c3s2)c1 [Example 367, 3-(4-Cyclopropylsulfamoyl-benzyl)-1-methyl-2,4-dioxo-1,2,3,4-tetrahydro-thieno[2,3-d]pyrimidine-6-carboxylic acid 3-methoxy-benzylamide] | 
735 |  | COc1cccc(CNC(=O)c2cc3c(=O)n(Cc4ccc([N+](=O)[O-])nc4)c(=O)n(C)c3s2)c1 [Example 368, 1-Methyl-3-(6-nitro-pyridin-3-ylmethyl)-2,4-dioxo-1,2,3,4-tetrahydro-thieno[2,3-d]pyrimidine-6-carboxylic acid 3-methoxy-benzylamide] | 
220 |  | COc1cc(CNC(=O)c2cc3c(=O)n(CC4CCCCC4)c(=O)n(C)c3s2)ccn1 [Example 371, 3-Cyclohexylmethyl-1-methyl-2,4-dioxo-1,2,3,4-tetrahydro-thieno[2,3-d]pyrimidine-6-carboxylic acid (2-methoxy-pyridin-4-ylmethyl)-amide] | 
660 |  | COc1cccc(CNC(=O)c2cc3c(=O)n(Cc4ccc(N)nc4)c(=O)n(C)c3s2)c1 [Example 384, 3-(6-Amino-pyridin-3-ylmethyl)-1-methyl-2,4-dioxo-1,2,3,4-tetrahydro-thieno[2,3-d]pyrimidine-6-carboxylic acid 3-methoxy-benzylamide] | 
7 |  | COc1ccc(CNC(=O)c2cc3c(=O)n(CC#Cc4ccccc4)c(=O)n(C)c3s2)cc1 [Example 385, 1-Methyl-2,4-dioxo-3-(3-phenyl-prop-2-ynyl)-1,2,3,4-tetrahydro-thieno[2,3-d]pyrimidine-6-carboxylic acid 4-methoxy-benzylamide] | 
